Like-named read-outs stand apart in the source and are kept apart here.
How the values were obtained:
[1] = test system: A. baumannii clinical isolates; assay: Susceptibility of panel strains to the polymyxin alone; format: cell-based, Acinetobacter baumannii; details: for number of strains with MIC>2 mg/L towards the polymyxin: polymyxin alone; for strains susceptible to the polymyxin at the fixed concentration: polymyxin alone at 0.125 mg/L
Description: (§1) The MIC90 (the maximum Minimal Inhibitory Concentration which inhibits growth of 90% of the strains of a test panel) of rifabutin is 2 or 1 mg/L when tested respectively in RPMI/FCS for broth microdilution or MHA/PIH for agar dilution against a panel of 293 carbapenem-resistant Acinetobacter baumannii (CRAB) (Trebosc V, et al. 2020. In vitro activity of rifabutin against 293 contemporary carbapenem-resistant Acinetobacter baumannii clinical isolates and characterization of rifabutin mode of action and resistance mechanisms. J Antimicrob Chemother. 75(12):3552-3562, incorporated herein by reference). […] At these respective polymyxin concentrations, no strains, 3% of the strains, and <5% of the strains would be susceptible to the respective polymyxin. FIG. 1 illustrates the cumulative index and MIC50 and MIC90 of rifabutin in the presence of members of the polymyxin family of antibiotics at sub MIC (sub trough concentrations) showing the synergistic effect discussed above.
(§2) In vitro activity of rifabutin against 293 contemporary carbapenem-resistant Acinetobacter baumannii clinical isolates and characterization of rifabutin mode of action and resistance mechanisms. J Antimicrob Chemother. 75(12):3552-3562, incorporated herein by reference in its entirety). […] FIG. 2 illustrates the MIC distribution of rifabutin in the presence of members of the polymyxin family of antibiotics at sub MIC (sub trough concentrations) showing the synergistic effect discussed above.

[2] = test system: A. baumannii Pop1 and Pop2 strains; assay: Time kill curves in CAMHB with 0.1 mM PIH; format: cell-based, Acinetobacter baumannii
Description: Based on the data of EXAMPLE 1, the bactericidal activity and the resistance development of rifabutin and of fixed rifabutin/polymyxin concentrations was assessed in time-kill curve experiments. […] FIGS. 3 and 4 show kill curve experiments on two different A. baumannii strains (Pop 1 and Pop2) having very different rifabutin MICs.
Based on the data of EXAMPLE 2, the bactericidal activity and the resistance development of rifabutin/polymyxin B was assessed in time kill curve experiments using a lower concentration of rifabutin and additional strains. Concentrations were fixed at 0.03 mg/L for rifabutin (on average, one thirty-second the rifabutin MIC90), and at 0.125 or 0.06 mg/L for polymyxin B (one fourth and one eighth the fCtrough of polymyxin B).
Time-kill kinetics were performed in CAMHB supplemented with 0.1 mM PIH medium. Rifabutin was tested at 0.25 mg/L with or without the specified concentration of a polymyxin agent. Samples were taken at 0, 2, 4, 8 and 24 hours in order to determine the colony forming units (cfu). Bactericidal activity is defined as ≥3-log reduction in cfu compared to the cfu present in the inoculum (0 hours).

[3] = test system: A. baumannii clinical isolates; assay: Rifabutin MIC with a fixed polymyxin concentration, broth microdilution in CAMHB/PIH; format: cell-based, Acinetobacter baumannii
Description: as §1, §2
The rifabutin MICs in combination with a fixed concentration of the specified polymyxin were determined by broth microdilution method according to the CLSI guideline. The medium used to determine the MICs was cation-adjusted Muller Hinton broth (CAMHB) supplemented with 0.1 mM of pyridoxal isonicotinoyl hydrazone (PIH). […] Accordingly, the MIC values were set at the first lowest rifabutin concentration preventing growth as assessed by visual inspection of the assay plate.

[4] = test system: A. baumannii Pop1 and Pop2 strains; assay: Rifabutin MIC of the strains used for time-kill curves; format: cell-based; details: Acinetobacter baumannii
[5] = test system: carbapenem-resistant Acinetobacter baumannii (CRAB); details: RPMI/FCS, broth microdilution, panel of 293 CRAB; cited from earlier work
[6] = test system: carbapenem-resistant Acinetobacter baumannii (CRAB); details: MHA/PIH, cited from earlier work
[7] = Example 2, colistin or polymyxin B alone at 0.125 or 0.03 mg/L, Pop 1 and Pop2 strains

colistin sulfate
number of strains with MIC>2 mg/L towards the polymyxin [1]: 45 strains
strains susceptible to the polymyxin at the fixed concentration [1]: 3%
bactericidal activity in time-kill curves [2, 7]: either poorly bactericidal or allow for regrowth

CO[C@H]1/C=C/O[C@@]2(C)Oc3c(C)c(O)c4c(c3C2=O)C2=NC3(CCN(CC(C)C)CC3)NC2=C(NC(=O)/C(C)=C\C=C\[C@H](C)[C@H](O)[C@@H](C)[C@@H](O)[C@@H](C)[C@H](OC(C)=O)[C@@H]1C)C4=O [rifabutin, Rifabutin]
strains having a rifabutin MIC≤1 mg/L in the presence of a polymyxin ([3]; CAMHB/PIH broth microdilution, about one-quarter of the fCtrough of the polymyxin): 99%
MIC90 of rifabutin in the presence of a polymyxin ([3]; CAMHB/PIH broth microdilution, with 0.125 mg/L polymyxin B, 0.125 mg/L colistin or 0.03 mg/L SPR206 (about one-quarter of fCtrough)): 0.06 to 0.25 µg/mL
fold lowering of rifabutin MIC90 in the presence of a polymyxin ([3]; subinhibitory concentrations of a polymyxin antibiotic): up to 32 fold
MIC ([4]; A. baumannii Pop 1 strain of FIG. 3): 0.016 µg/mL
MIC ([4]; A. baumannii Pop2 strain of FIG. 4): 1 µg/mL
MIC ([4]; ATCC17978, Pop 1 strain ATCC 17978): 0.008 µg/mL
MIC ([4]; Pop 1 strain HUMC1): 0.002 µg/mL
MIC ([4]; Pop2 strain LAC-4): 1 µg/mL
MIC ([4]; Pop2 strain UNT238-1): 2 µg/mL
bactericidal activity in time-kill curves ([2]; Example 2, rifabutin alone at 0.25 mg/L, Pop 1 and Pop2 strains): either poorly bactericidal or allow for regrowth
bactericidal activity in time-kill curves ([2]; Example 3, rifabutin alone at 0.03 mg/L, Pop1 and Pop2 strains): either poorly bactericidal or allowed for regrowth
MIC90 of rifabutin [5]: 2 µg/mL
strains in population 1 (rifabutin MICs<0.125 mg/L) ([6]; 293 CRAB): 72%
strains in population 2 (rifabutin MICs≥0.125 to <16 mg/L) ([6]; 293 CRAB): 27%
strains in population 3 (rifabutin MICs≥16 mg/L) ([6]; 293 CRAB): 1%
MIC90 of rifabutin ([6]; agar dilution, panel of 293 CRAB): 1 µg/mL

polymyxin B sulfate
number of strains with MIC>2 mg/L towards the polymyxin [1]: 40 strains
strains susceptible to the polymyxin at the fixed concentration [1]: no strains
bactericidal activity in time-kill curves [2, 7]: either poorly bactericidal or allow for regrowth
bactericidal activity in time-kill curves ([2]; Example 3, polymyxin B alone at 0.125 or 0.06 mg/L, Pop1 and Pop2 strains): either poorly bactericidal or allowed for regrowth

SPR206 acetate
number of strains with MIC>2 mg/L towards the polymyxin [1]: 18 strains
bactericidal activity in time-kill curves ([2]; Example 2, SPR206 alone at 0.03 mg/L, Pop 1 and Pop2 strains): either poorly bactericidal or allow for regrowth
